dTm data for ten molecules are collected here from paper PMC12136037, “Type II kinase inhibitors that target Parkinson’s disease–associated LRRK2” (Science Advances, 2025).

SMILES strings stand for the structures.

Common to all, as to test: DSF 100 kinase selectivity screen;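 also: compound tested at 20 µM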
What all share (assay type): binding

Assay [1] addresses T1, ~100 representative kinases (Homo sapiens, UniProt Q8TF76).
T1 construct: Recombinant protein kinase domains with a concentration of 2 μM
T1 sequence (Q8TF76 1-798): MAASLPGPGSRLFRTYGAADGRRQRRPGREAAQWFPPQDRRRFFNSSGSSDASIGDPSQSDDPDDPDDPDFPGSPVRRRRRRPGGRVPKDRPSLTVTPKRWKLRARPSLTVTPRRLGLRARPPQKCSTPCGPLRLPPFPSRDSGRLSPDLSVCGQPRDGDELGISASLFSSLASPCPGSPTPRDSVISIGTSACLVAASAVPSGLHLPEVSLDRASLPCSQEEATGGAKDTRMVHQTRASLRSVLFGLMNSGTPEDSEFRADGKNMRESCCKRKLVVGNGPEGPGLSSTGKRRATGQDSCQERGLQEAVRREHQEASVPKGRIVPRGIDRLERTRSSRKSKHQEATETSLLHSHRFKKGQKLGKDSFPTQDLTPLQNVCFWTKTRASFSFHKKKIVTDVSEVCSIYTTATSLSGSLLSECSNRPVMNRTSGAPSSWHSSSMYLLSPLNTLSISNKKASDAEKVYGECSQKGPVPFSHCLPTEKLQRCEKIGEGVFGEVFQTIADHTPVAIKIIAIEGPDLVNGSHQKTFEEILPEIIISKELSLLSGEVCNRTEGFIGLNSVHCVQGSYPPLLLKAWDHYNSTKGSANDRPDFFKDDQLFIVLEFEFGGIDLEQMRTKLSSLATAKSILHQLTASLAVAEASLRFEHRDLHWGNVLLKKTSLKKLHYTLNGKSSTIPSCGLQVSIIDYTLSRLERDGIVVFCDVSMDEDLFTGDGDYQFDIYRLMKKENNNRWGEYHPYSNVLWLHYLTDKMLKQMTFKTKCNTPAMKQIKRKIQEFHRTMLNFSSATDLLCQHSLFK
The note with it: protein GSG2; average of three replicates. The gist of the method:
(§1)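 Each kinase domain, at 2 μM, is mixed with 20 μM test compound and SYPRO Orange in Hepes (20 mM, pH 7.5) with 500 mM NaCl. Temperature is then raised at 3°C/min and fluorescence-monitored unfolding yields the melting temperature change, ΔTm in degrees Celsius.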

Assay [2] has as its target T2, ~100 representative kinases (Homo sapiens, UniProt O95747).
T2 construct: Recombinant protein kinase domains with a concentration of 2 μM
As to conditions: protein OSR1; average of three replicates. The gist of the method: as §1

Assay [3] concerns the target T3, ~100 representative kinases (Homo sapiens, UniProt P00519).
T3 construct: Recombinant protein kinase domains with a concentration of 2 μM
As to conditions: Protein ABL1; average of three replicates. A digest of the protocol: as §1

In assay [4] the target is T4, ~100 representative kinases (Homo sapiens, UniProt Q13188).
T4 construct: Recombinant protein kinase domains with a concentration of 2 μM
T4 sequence (Q13188 1-491): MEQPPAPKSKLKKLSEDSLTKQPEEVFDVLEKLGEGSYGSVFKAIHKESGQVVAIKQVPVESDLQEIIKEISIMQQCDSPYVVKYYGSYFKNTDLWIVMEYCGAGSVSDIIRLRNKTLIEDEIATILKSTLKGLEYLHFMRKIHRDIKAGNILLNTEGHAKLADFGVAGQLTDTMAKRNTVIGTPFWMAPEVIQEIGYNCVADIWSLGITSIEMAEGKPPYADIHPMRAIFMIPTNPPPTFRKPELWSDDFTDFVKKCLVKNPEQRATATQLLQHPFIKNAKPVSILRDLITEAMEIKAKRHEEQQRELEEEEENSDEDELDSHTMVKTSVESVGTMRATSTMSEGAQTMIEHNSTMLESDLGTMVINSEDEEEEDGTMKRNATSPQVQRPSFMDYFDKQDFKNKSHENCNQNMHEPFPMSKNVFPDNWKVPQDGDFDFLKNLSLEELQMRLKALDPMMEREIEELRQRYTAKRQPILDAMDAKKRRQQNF
As to conditions: Protein STK3; DSF; average of three replicates. The gist of the method:
as §1

For assay [5], the target named is T5, ~100 representative kinases (Homo sapiens, UniProt P11362).
T5 construct: Recombinant protein kinase domains with a concentration of 2 μM
As to conditions: protein FGFR1; average of three replicates. The gist of the method:
as §1

The target of assay [6] is T6, ~100 representative kinases (Homo sapiens, UniProt P07332).
T6 construct: Recombinant protein kinase domains with a concentration of 2 μM
The note with it: protein FESA; average of three replicates. A digest of the protocol: as §1

Assay [7] deals with T7, ~100 representative kinases (Homo sapiens, UniProt Q86V86).
T7 construct: Recombinant protein kinase domains with a concentration of 2 μM
As to conditions: protein PIM3; average of three replicates. The gist of the method:
as §1

Assay [8] concerns the target T8, ~100 representative kinases (Homo sapiens, UniProt Q8IU85).
T8 construct: Recombinant protein kinase domains with a concentration of 2 μM
The note with it: Protein CAMK1D; average of three replicates. A digest of the protocol:
as §1

Assay [9] addresses T9, ~100 representative kinases (Homo sapiens, UniProt O75582).
T9 construct: Recombinant protein kinase domains with a concentration of 2 μM
As to conditions: Protein RPS6KA5; DSF; average of three replicates. The gist of the method: as §1

The target in assay [10] is T10, ~100 representative kinases (Homo sapiens, UniProt P45985).
T10 construct: Recombinant protein kinase domains with a concentration of 2 μM
T10 sequence (P45985 1-399): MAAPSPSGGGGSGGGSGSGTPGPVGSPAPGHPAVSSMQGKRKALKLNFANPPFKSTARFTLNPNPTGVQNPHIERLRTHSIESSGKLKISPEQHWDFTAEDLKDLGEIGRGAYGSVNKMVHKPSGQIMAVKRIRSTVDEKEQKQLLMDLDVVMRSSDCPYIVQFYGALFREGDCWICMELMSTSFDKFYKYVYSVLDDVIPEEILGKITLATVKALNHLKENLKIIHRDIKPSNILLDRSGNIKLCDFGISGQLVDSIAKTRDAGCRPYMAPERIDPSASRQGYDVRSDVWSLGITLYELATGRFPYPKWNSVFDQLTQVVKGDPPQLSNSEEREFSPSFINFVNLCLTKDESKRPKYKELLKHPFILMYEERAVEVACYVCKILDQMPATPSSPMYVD
The note with it: protein MAP2K4; average of three replicates. A digest of the protocol:
as §1

Assay [11] concerns the target T11, ~100 representative kinases (Homo sapiens, UniProt Q15418).
T11 construct: Recombinant protein kinase domains with a concentration of 2 μM
As to conditions: Protein RPS6KA1; DSF; average of three replicates. The gist of the method:
as §1

T6 sequence (P07332 whole entry, the tested form may be a part): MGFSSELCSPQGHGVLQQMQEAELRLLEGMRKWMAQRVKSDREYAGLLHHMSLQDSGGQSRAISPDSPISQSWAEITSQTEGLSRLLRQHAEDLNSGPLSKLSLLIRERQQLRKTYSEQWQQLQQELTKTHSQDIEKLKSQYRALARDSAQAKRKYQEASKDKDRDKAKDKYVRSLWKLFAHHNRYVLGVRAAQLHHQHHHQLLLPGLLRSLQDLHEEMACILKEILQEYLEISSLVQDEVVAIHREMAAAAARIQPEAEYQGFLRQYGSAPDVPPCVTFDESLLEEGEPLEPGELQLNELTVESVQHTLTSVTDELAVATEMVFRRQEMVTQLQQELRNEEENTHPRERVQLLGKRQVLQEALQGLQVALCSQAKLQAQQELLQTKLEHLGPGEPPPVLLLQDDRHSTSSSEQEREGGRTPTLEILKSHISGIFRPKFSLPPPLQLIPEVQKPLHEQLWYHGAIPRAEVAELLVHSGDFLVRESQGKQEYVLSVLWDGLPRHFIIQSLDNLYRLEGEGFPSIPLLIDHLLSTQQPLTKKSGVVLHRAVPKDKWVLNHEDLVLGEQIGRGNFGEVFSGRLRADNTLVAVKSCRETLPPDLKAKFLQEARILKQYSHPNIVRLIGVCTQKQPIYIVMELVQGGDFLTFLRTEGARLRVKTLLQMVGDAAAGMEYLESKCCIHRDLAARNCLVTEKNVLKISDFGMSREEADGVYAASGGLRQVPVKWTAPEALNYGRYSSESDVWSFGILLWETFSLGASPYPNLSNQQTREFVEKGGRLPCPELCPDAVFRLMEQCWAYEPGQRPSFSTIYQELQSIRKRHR
T11 sequence (Q15418 whole entry, the tested form may be a part): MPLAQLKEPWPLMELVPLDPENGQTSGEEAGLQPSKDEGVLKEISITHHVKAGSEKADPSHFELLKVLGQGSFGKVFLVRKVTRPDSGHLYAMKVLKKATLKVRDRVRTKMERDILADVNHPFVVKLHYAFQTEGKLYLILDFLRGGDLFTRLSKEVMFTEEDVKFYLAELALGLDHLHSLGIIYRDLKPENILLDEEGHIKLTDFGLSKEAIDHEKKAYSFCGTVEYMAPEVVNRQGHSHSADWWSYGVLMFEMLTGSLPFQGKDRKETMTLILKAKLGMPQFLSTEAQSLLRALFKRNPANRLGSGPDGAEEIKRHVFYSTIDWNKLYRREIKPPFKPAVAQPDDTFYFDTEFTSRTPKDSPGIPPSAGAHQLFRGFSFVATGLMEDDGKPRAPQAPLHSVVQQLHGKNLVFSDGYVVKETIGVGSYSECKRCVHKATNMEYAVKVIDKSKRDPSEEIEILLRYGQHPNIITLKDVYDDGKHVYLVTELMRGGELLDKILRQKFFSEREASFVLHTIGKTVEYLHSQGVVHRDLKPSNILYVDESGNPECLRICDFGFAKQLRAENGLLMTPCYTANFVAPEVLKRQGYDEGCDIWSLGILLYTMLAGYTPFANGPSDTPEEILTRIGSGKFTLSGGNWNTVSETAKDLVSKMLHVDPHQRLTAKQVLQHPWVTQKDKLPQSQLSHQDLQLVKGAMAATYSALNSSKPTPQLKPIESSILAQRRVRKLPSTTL
T9 sequence (O75582 whole entry, the tested form may be a part): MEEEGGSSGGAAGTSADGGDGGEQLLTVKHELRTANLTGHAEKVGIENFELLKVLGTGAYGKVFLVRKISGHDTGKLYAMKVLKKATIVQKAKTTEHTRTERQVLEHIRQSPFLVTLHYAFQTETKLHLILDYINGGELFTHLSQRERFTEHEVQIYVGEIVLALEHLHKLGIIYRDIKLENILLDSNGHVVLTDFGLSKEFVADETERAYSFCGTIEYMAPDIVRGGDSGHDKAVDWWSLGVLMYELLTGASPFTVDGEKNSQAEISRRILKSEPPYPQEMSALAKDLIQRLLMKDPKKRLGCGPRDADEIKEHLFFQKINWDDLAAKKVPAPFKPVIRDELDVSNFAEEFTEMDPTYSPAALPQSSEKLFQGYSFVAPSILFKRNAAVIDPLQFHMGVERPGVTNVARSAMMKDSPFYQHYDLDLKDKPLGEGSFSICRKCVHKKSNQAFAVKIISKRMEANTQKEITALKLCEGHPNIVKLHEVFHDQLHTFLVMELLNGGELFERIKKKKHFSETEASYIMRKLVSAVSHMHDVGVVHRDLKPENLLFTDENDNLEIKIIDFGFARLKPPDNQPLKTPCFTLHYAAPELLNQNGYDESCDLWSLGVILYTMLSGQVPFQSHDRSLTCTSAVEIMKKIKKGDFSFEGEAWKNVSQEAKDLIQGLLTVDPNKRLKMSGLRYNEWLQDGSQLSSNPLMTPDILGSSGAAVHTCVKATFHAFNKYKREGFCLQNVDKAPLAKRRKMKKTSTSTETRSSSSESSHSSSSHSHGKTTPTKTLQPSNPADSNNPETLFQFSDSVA
T2 sequence (O95747 whole entry, the tested form may be a part): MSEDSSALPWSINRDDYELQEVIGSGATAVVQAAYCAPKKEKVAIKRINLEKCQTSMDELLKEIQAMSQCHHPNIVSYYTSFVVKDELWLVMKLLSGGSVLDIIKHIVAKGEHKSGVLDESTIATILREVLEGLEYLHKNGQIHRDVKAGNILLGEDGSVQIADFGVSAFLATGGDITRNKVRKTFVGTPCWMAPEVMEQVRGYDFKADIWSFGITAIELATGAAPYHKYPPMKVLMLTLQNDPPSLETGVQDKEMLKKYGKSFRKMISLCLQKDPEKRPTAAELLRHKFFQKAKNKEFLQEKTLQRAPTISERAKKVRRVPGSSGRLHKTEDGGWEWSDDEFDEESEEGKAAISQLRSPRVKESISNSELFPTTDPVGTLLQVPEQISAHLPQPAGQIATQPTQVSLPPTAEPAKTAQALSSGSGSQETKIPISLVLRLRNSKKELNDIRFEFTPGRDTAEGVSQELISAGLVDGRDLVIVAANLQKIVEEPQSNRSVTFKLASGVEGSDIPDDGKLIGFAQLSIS
T8 sequence (Q8IU85 whole entry, the tested form may be a part): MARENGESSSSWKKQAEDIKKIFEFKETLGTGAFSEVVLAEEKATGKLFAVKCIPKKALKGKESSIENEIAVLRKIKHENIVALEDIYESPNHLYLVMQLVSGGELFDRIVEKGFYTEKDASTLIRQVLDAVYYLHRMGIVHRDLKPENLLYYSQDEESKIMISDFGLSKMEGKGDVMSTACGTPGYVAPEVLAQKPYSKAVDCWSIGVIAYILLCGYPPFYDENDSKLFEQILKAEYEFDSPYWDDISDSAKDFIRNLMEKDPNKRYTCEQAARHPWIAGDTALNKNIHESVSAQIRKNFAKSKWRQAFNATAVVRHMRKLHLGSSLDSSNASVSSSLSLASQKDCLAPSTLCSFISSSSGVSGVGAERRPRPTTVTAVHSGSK
T3 sequence (P00519 whole entry, the tested form may be a part): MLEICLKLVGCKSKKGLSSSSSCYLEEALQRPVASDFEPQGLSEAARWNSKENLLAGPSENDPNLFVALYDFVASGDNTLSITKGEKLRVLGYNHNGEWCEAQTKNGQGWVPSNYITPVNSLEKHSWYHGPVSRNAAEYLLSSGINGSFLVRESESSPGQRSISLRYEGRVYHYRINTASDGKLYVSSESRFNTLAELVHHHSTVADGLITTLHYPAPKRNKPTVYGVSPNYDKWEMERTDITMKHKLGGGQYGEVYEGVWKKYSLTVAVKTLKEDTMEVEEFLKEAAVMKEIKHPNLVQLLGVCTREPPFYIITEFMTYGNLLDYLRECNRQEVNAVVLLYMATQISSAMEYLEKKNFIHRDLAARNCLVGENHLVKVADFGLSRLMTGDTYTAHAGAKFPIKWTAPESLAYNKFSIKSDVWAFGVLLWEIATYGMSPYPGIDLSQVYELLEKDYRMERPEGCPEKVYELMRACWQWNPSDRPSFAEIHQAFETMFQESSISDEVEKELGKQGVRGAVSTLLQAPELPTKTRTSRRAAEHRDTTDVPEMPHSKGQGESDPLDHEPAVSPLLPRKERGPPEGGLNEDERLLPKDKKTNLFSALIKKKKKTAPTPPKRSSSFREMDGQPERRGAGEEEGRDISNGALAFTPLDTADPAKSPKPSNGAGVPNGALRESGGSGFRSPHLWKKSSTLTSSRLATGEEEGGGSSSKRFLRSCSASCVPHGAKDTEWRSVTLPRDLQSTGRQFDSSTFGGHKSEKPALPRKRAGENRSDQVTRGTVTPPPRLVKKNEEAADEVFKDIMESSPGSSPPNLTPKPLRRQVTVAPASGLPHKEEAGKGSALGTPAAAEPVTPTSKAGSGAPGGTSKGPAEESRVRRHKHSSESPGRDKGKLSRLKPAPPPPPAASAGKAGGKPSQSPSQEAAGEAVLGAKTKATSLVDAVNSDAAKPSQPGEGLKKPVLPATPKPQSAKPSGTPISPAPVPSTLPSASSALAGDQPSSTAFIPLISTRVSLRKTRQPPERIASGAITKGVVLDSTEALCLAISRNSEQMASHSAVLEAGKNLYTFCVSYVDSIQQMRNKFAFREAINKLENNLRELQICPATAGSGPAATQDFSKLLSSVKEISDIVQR

As for `Cc1ccc(NC(=O)C2(C(=O)Nc3cccc(-c4c[nH]c5ncnc(N6CCOCC6)c45)c3)CC2)cc1` [Compound 14], the dTm is reported as -0.69 K in assay [1]; 1.54 K in [2]; 1.79 K in assay [3]; 7.94 K in [4]; 0.77 K in [5]; 6.21 K in assay [6]. Also, the dTm in assay [7] is on record as 0.71 K; in [8], -1.76 K; in assay [9], 3.04 K; in [10] it was 5.95 K; in assay [11], 0.14 K.

In the case of `CCc1ccc(NC(=O)C2(C(=O)Nc3cccc(-c4c[nH]c5ncnc(N6CCOCC6)c45)c3)CC2)cc1` [Compound 15], the dTm is reported as -1.97 K in [1]; 0.69 K in assay [2]; 1.94 K in assay [3]; 8.42 K in assay [4]; 0.64 K in [5]; 4.64 K in assay [6]. In addition, the dTm is 1.24 K in [7]; -1.11 K in assay [8]; 2.22 K in assay [9]; 6.81 K in assay [10]; 0.29 K in assay [11].

On to `COc1ccc(NC(=O)C2(C(=O)Nc3cccc(-c4c[nH]c5ncnc(N6CCOCC6)c45)c3)CC2)cc1` [Compound 16], for which the dTm in assay [1] is given as -0.39 K; in assay [2], 0.35 K; in [3], 1.06 K; in assay [4], 5.34 K; in assay [5], 0.70 K; in assay [6] it was 3.37 K. The dTm in assay [7] is reported as 0.23 K; in assay [8] it was -1.41 K; in assay [9], 0.21 K; in assay [10] it was 3.98 K; in assay [11] it was -0.37 K.

In the case of `O=C(Nc1cccc(-c2c[nH]c3ncnc(N4CCOCC4)c23)c1)C1(C(=O)Nc2ccc(F)c(F)c2)CC1` [Compound 17], the dTm is recorded as -3.87 K in [1]; 2.20 K in assay [2]; 1.22 K in assay [3]; 7.68 K in assay [4]; 1.11 K in assay [5]; 5.87 K in assay [6]. Also, the dTm is recorded as 1.09 K in assay [7]; -0.44 K in assay [8]; 6.14 K in assay [9]; 5.80 K in assay [10]; 0.38 K in assay [11].

Turning to `O=C(Nc1cccc(-c2c[nH]c3ncnc(N4CCOCC4)c23)c1)C1(C(=O)Nc2ccc(F)c(Cl)c2)CC1` [Compound 18], the dTm in [1] was -3.25 K; in [2], 0.31 K; in assay [3], 2.25 K; in assay [4], 8.55 K; in [5], 2.20 K; in [6], 6.93 K. The dTm in [7] is given as 1.00 K; in assay [8] it was 1.04 K; in [9] it was -1.56 K; in assay [10], 6.47 K; in assay [11], 0.70 K.

As for `O=C(Nc1cccc(-c2c[nH]c3ncnc(N4CCOCC4)c23)c1)C1(C(=O)Nc2ccc(F)c(Br)c2)CC1` [Compound 19], the dTm in assay [1] is reported as -2.45 K; in [2], 1.49 K; in [3] it was 1.83 K; in assay [4], 7.71 K; in [5], 1.26 K; in assay [6], 6.49 K. Further, the dTm in assay [7] is given as -0.34 K; in assay [8], 3.06 K; in [9] it was 6.08 K; in [10] it was 6.16 K; in assay [11], 0.26 K.

In the case of `Cc1cc(NC(=O)C2(C(=O)Nc3cccc(-c4c[nH]c5ncnc(N6CCOCC6)c45)c3)CC2)ccc1F` [Compound 20], the dTm is -3.30 K in assay [1]; 1.31 K in assay [2]; 2.29 K in assay [3]; 10.06 K in assay [4]; 2.46 K in assay [5]; 7.60 K in assay [6]. Moreover, the dTm in [7] was 1.71 K; in assay [8], 0.0569 K; in [9] it was 7.70 K; in [10], 7.49 K; in assay [11], 0.33 K.

With `COc1cc(NC(=O)C2(C(=O)Nc3cccc(-c4c[nH]c5ncnc(N6CCOCC6)c45)c3)CC2)ccc1F` [Compound 21], the dTm is recorded as -2.20 K in assay [1]; 1.79 K in [2]; 1.21 K in assay [3]; 8.44 K in assay [4]; 1.39 K in assay [5]; 6.34 K in assay [6]. For the same molecule, the dTm in [7] is -0.0363 K; in [8], -0.74 K; in assay [9], 4.31 K; in assay [10], 6.42 K; in assay [11], 0.11 K.

Regarding `CC(C)(C)c1cccc(NC(=O)C2(C(=O)Nc3cccc(-c4c[nH]c5ncnc(N6CCOCC6)c45)c3)CC2)c1` [Compound 22], the dTm in assay [1] is -2.85 K; in assay [2], 4.04 K; in assay [3] it was 2.30 K; in [4] it was 9.61 K; in [5], 1.53 K; in assay [6], 7.02 K. Further, the dTm in assay [7] is -1.29 K; in [8] it was 3.02 K; in [9], 1.50 K; in [10], 5.69 K; in assay [11], -0.38 K.

For the molecule `O=C(Nc1cccc(-c2c[nH]c3ncnc(N4CCOCC4)c23)c1)C1(C(=O)Nc2ccc(F)cc2F)CC1` [Compound 23], the dTm is on record as -2.84 K in assay [1]; 1.41 K in assay [2]; 1.35 K in assay [3]; 6.69 K in assay [4]; 1.14 K in assay [5]; 4.70 K in [6]. Further, the dTm in assay [7] is recorded as -0.33 K; in assay [8], -1.25 K; in assay [9], 0.48 K; in assay [10], 5.20 K; in assay [11], 0.27 K.
